Laboratory results as given in patent EP0502418A1, “Use of levemopamil for the manufacture of a medicament for the treatment of alcohol abuse” (priority 1991, dated 1992).

Legend:
[1] = compared with verapamil; cited from earlier work
[2] = system: alcohol preferring Wistar rats; assay: Alcohol, water, total fluid and food intake in alcohol preferring (P) rats, single dose level (Example 5); format: in vivo
Method: Levemopamil was administered in eight selectively-bred adult male alcohol preferring Wistar rats (hereinafter "P") obtained from the Indiana Alcohol Research Center at the University of Indiana School of Medicine.
These lines of rats have been developed genetically through selected breeding by Lumeng et al., New strains of rats with alcohol preference and nonpreference. In: Thurman et al., Eds. Alcohol and Aldehyde Metabolizing Systems. Vol. 3. New York: Academic Press, 1977. pp. 537-544. The P rats prefer to drink at least 5g/Kg body weight/day of a 10% (v/v) ethanol solution in a free-choice situation with food and water available. These rats have been widely used as an animal model of alcoholism. See, Tabakoff et al., Biochemical Pharmacology of Alcohol. Meltzer, Ed. In: Psychopharmacology: The Third Generation of Progress. New York: Raven Press, 1978. pp.1521-1526.
The criteria for classification of P rats was that the average daily intake of ethanol (10%v/v) in P rats should be equal or greater than 5g/Kg body weight/day and the ethanol to water intake ratio should be equal or greater than 2:1.
After establishing a stable baseline for alcohol and water intake, Each animal was injected twice (9:30 and 16:30 hours) with a 10 mg/Kg dosage of levemopamil or an equal volume of the vehicle. Water, alcohol and food intake were monitored.

[3] = in vivo; cited from earlier work
P rats = assay: Alcohol and water intake in P rats, three doses of levemopamil (Example 6); format: in vivo
Method: Levemopamil and a vehicle were administered in eight P rats obtained from the Indiana Alcohol Research Center at the University of Indiana School of Medicine, as described in Example 5. After establishing a stable baseline for alcohol and water intake, Each animal was injected twice (9:15 and 16:00 hours) with either one of three doses of levemopamil (3.3, 10, and 20 mg/Kg) or an equal volume of the vehicle (a solution of 1 ml absolute ethanol and 4 ml distilled water. Water and alcohol intake were monitored. The amount of alcohol and water intake was recorded twice daily before each administration of vehicle or levemopamil and continued during the drug washout periods.

Question: Which cerebral availability [1] does the source give for CC(C)C(C#N)(CCCN(C)CCc1ccccc1)c1ccccc1 (centres unmarked) [levemopamil, 2-isopropyl-5-(methylphenethylamino)-2-phenylvaleronitrile] here?
Answer: significantly higher than that of the comparison compound verapamil

Question: And the “alcohol intake or consumption” value ([2]; 10 mg/Kg injected twice (9:30 and 16:30 hours), vs baseline and vehicle, Figure 1)?
Answer: significantly attenuated

Question: What about the food intake ([2]; 10 mg/Kg injected twice, Figure 4) of the same compound?
Answer: unaffected

Question: And the water intake ([2]; 10 mg/Kg injected twice, vs vehicle and base-line, Figure 2)?
Answer: significantly increased

Question: And the Total fluid intake ([2]; 10 mg/Kg injected twice, vs vehicle and base-line, Figure 3)?
Answer: decreased

Question: What about the “passage of the blood/brain barrier by brain uptake index (BUI)” value [3] of the same compound?
Answer: more rapidly and in considerably larger amounts than does verapamil

Question: And the intake of ethanol (P rats; 10mg/Kg and 20 mg/Kg twice daily over one day, vs vehicle and base-line, Figure 5)?
Answer: significantly reduced

Question: And the intake of water (P rats; 10mg/Kg and 20 mg/Kg twice daily over one day, vs vehicle and base-line, Figure 6)?
Answer: significantly increased

Question: And the “Alcohol intake during the drug washout periods” value (P rats; drug washout periods after dosing)?
Answer: returned to base-line levels

Question: And the ethanol intake (P rats; low dose 3.3mg/Kg, injected twice, Figure 5)?
Answer: did not induce a significant change

Question: And the water intake (P rats; low dose 3.3mg/Kg, injected twice, Figure 6)?
Answer: did not induce a significant change
